From publication PMC5218480 (PLoS ONE, 2017)

Tested on: MV-4-11 cells
Assay: Gene expression microarray analysis (Affymetrix PrimeView) and GSEA
Assay type: cell-based, human
Parameters: RFU PODN (11730768_x_at) / Fold change /veh PODN (11730768_x_at) / RFU LINC00158 (11744669_a_at) / Fold change /veh LINC00158 (11744669_a_at) / RFU DUSP10 (11751237_a_at) / Fold change /veh DUSP10 (11751237_a_at) / RFU ID3 (11757404_x_at) / Fold change /veh ID3 (11757404_x_at) / RFU PLEKHG5 (11737974_s_at) / Fold change /veh PLEKHG5 (11737974_s_at) / RFU LRRC4B (11730491_at) / Fold change /veh LRRC4B (11730491_at) / RFU GIMAP4 (11747438_a_at) / Fold change /veh GIMAP4 (11747438_a_at) / RFU KRT8 (11758183_x_at) / Fold change /veh KRT8 (11758183_x_at) / RFU CNN1 (11734310_a_at) / Fold change /veh CNN1 (11734310_a_at) / RFU VPS37D (11726825_at) / Fold change /veh VPS37D (11726825_at) / RFU C10orf10 (11716522_x_at) / Fold change /veh C10orf10 (11716522_x_at) / RFU KIR2DL2 /// KIR2DL4 /// KIR2DL5A /// KIR2DL5B /// KIR2DS1 /// KIR2DS2 /// KIR2DS3 /// KIR2DS4 /// KIR3DL3 /// KIR3DL3 /// KIR3DS1 (11738374_at) / Fold change /veh KIR2DL2 /// KIR2DL4 /// KIR2DL5A /// KIR2DL5B /// KIR2DS1 /// KIR2DS2 /// KIR2DS3 /// KIR2DS4 /// KIR3DL3 /// KIR3DL3 /// KIR3DS1 (11738374_at) / RFU C1QL1 (11718748_at) / Fold change /veh C1QL1 (11718748_at) / RFU TMPRSS4 (11747572_a_at) / Fold change /veh TMPRSS4 (11747572_a_at) / RFU HAMP (11756126_x_at) / Fold change /veh HAMP (11756126_x_at) / RFU RNFT2 (11725882_a_at) / Fold change /veh RNFT2 (11725882_a_at) / RFU NR4A2 (11747474_a_at) / Fold change /veh NR4A2 (11747474_a_at) / RFU ABCC12 (11746883_a_at) / Fold change /veh ABCC12 (11746883_a_at) / RFU TMEM136 (11760407_x_at) / Fold change /veh TMEM136 (11760407_x_at) / RFU CLDN22 /// WWC2 (11732394_at) / Fold change /veh CLDN22 /// WWC2 (11732394_at) / RFU HLA-DPB1 (11760878_x_at) / Fold change /veh HLA-DPB1 (11760878_x_at) / RFU SPINT1 (11716480_a_at) / Fold change /veh SPINT1 (11716480_a_at) / RFU GAP43 (11754022_s_at) / Fold change /veh GAP43 (11754022_s_at) / RFU A4GNT (11735810_at) / Fold change /veh A4GNT (11735810_at) / RFU PRB3 (11715151_x_at) / Fold change /veh PRB3 (11715151_x_at) / RFU TUBB4B (11761932_at) / Fold change /veh TUBB4B (11761932_at) / RFU CAPN14 (11732068_a_at) / Fold change /veh CAPN14 (11732068_a_at) / RFU TMCC2 (11721928_a_at) / Fold change /veh TMCC2 (11721928_a_at) / RFU IRGQ (11745062_a_at) / Fold change /veh IRGQ (11745062_a_at) / RFU FAM174B (11720279_a_at) / Fold change /veh FAM174B (11720279_a_at) / RFU TMPRSS4 (11748680_a_at) / Fold change /veh TMPRSS4 (11748680_a_at) / RFU FAM212B (11763350_a_at) / Fold change /veh FAM212B (11763350_a_at) / RFU PLEKHG5 (11743358_a_at) / Fold change /veh PLEKHG5 (11743358_a_at) / RFU ZSCAN30 (11745921_a_at) / Fold change /veh ZSCAN30 (11745921_a_at) / RFU CMKLR1 (11741424_a_at) / Fold change /veh CMKLR1 (11741424_a_at) / RFU LOC101060620 /// MAPK8IP1 (11723275_at) / Fold change /veh LOC101060620 /// MAPK8IP1 (11723275_at) / RFU SPTSSB (11747773_x_at) / Fold change /veh SPTSSB (11747773_x_at) / RFU PRSS12 (11739890_at) / Fold change /veh PRSS12 (11739890_at) / RFU BIN1 (11741810_x_at) / Fold change /veh BIN1 (11741810_x_at) / RFU WNT11 (11732464_a_at) / Fold change /veh WNT11 (11732464_a_at) / RFU C10orf10 (11716521_a_at) / Fold change /veh C10orf10 (11716521_a_at) / RFU C5orf56 (11738089_at) / Fold change /veh C5orf56 (11738089_at) / RFU CYB561 (11721691_x_at) / Fold change /veh CYB561 (11721691_x_at) / RFU ANKRD19P (11752326_a_at) / Fold change /veh ANKRD19P (11752326_a_at) / RFU OR2T12 /// OR2T33 /// OR2T8 (11738714_s_at) / Fold change /veh OR2T12 /// OR2T33 /// OR2T8 (11738714_s_at) / RFU VCAN (11748164_a_at) / Fold change /veh VCAN (11748164_a_at) / RFU JSRP1 (11732532_at) / Fold change /veh JSRP1 (11732532_at) / RFU KRTAP10-11 (11738290_x_at) / Fold change /veh KRTAP10-11 (11738290_x_at) / RFU MYO3A (11730013_a_at) / Fold change /veh MYO3A (11730013_a_at) / RFU EBF3 (11725865_a_at) / Fold change /veh EBF3 (11725865_a_at) / RFU CAMK2N1 (11719241_x_at) / Fold change /veh CAMK2N1 (11719241_x_at) / RFU C5orf56 (11738088_a_at) / Fold change /veh C5orf56 (11738088_a_at) / RFU OLFML3 (11715873_a_at) / Fold change /veh OLFML3 (11715873_a_at) / RFU LOC100653217 /// NTM (11731650_a_at) / Fold change /veh LOC100653217 /// NTM (11731650_a_at) / RFU MAPK11 (11762145_a_at) / Fold change /veh MAPK11 (11762145_a_at) / RFU FIZ1 (11724087_x_at) / Fold change /veh FIZ1 (11724087_x_at) / RFU OASL (11726364_x_at) / Fold change /veh OASL (11726364_x_at) / RFU SOX15 (11748057_x_at) / Fold change /veh SOX15 (11748057_x_at) / RFU CD79A (11719716_a_at) / Fold change /veh CD79A (11719716_a_at) / RFU HIST1H1D (11736915_at) / Fold change /veh HIST1H1D (11736915_at) / RFU CASKIN2 (11723855_a_at) / Fold change /veh CASKIN2 (11723855_a_at) / RFU LOC730098 (11760151_x_at) / Fold change /veh LOC730098 (11760151_x_at) / RFU OR4N2 (11742367_at) / Fold change /veh OR4N2 (11742367_at) / RFU PRRT2 (11749266_a_at) / Fold change /veh PRRT2 (11749266_a_at) / RFU SNX32 (11753110_a_at) / Fold change /veh SNX32 (11753110_a_at) / RFU CDHR5 (11726645_a_at) / Fold change /veh CDHR5 (11726645_a_at) / RFU RCAN1 (11760418_a_at) / Fold change /veh RCAN1 (11760418_a_at) / RFU FAM167A (11723789_a_at) / Fold change /veh FAM167A (11723789_a_at) / RFU FAM26E (11764081_at) / Fold change /veh FAM26E (11764081_at) / RFU ISYNA1 (11749810_s_at) / Fold change /veh ISYNA1 (11749810_s_at) / RFU ACY1 (11761880_at) / Fold change /veh ACY1 (11761880_at) / RFU 11764098_at / Fold change /veh 11764098_at / RFU SAMD14 (11745864_x_at) / Fold change /veh SAMD14 (11745864_x_at) / RFU NPB (11741838_a_at) / Fold change /veh NPB (11741838_a_at) / RFU TMPRSS6 (11731388_a_at) / Fold change /veh TMPRSS6 (11731388_a_at) / RFU KRTAP10-2 (11738614_at) / Fold change /veh KRTAP10-2 (11738614_at) / RFU ARHGAP8 /// PRR5-ARHGAP8 (11727945_x_at) / Fold change /veh ARHGAP8 /// PRR5-ARHGAP8 (11727945_x_at) / RFU KRTAP5-7 /// NADSYN1 (11734609_at) / Fold change /veh KRTAP5-7 /// NADSYN1 (11734609_at) / RFU RASL12 (11751679_a_at) / Fold change /veh RASL12 (11751679_a_at) / RFU CDKN2B (11736163_a_at) / Fold change /veh CDKN2B (11736163_a_at) / RFU PRF1 (11729649_at) / Fold change /veh PRF1 (11729649_at) / RFU, ZNF638 /// ZNF638-IT1 / Fold change vs veh, ZNF638 /// ZNF638-IT1 / RFU, PANK3 / Fold change vs veh, PANK3 / RFU, SH3YL1 / Fold change vs veh, SH3YL1 / RFU, ZEB2 / Fold change vs veh, ZEB2 / RFU, NRIP1 / Fold change vs veh, NRIP1 / RFU, PTTG1IP / Fold change vs veh, PTTG1IP / RFU, CAPN2 / Fold change vs veh, CAPN2 / RFU, MED14 / Fold change vs veh, MED14 / RFU, SNORA58 / Fold change vs veh, SNORA58 / RFU, C1orf63 / Fold change vs veh, C1orf63 / RFU, LRRFIP1 / Fold change vs veh, LRRFIP1 / RFU, NDUFAF7 / Fold change vs veh, NDUFAF7 / RFU, SLC12A2 / Fold change vs veh, SLC12A2 / RFU, IBTK / Fold change vs veh, IBTK / RFU, ESF1 / Fold change vs veh, ESF1 / Fold change vs veh, TMEM50B / RFU, TAOK1 / Fold change vs veh, TAOK1 / RFU, ACBD3 / Fold change vs veh, ACBD3 / RFU, TMA16 / Fold change vs veh, TMA16 / RFU, RWDD3 / Fold change vs veh, RWDD3 / RFU, BCAT1 / Fold change vs veh, BCAT1 / RFU, EDEM3 / Fold change vs veh, EDEM3 / RFU, TMEM33 / Fold change vs veh, TMEM33 / RFU, WDR75 / Fold change vs veh, WDR75 / RFU, AHCTF1 / Fold change vs veh, AHCTF1 / RFU, TFRC / Fold change vs veh, TFRC / RFU, ZDHHC17 / Fold change vs veh, ZDHHC17 / RFU, NOM1 / Fold change vs veh, NOM1 / RFU, ARL8B / Fold change vs veh, ARL8B / RFU, ZBTB11 / Fold change vs veh, ZBTB11 / RFU, TAMM41 / Fold change vs veh, TAMM41 / RFU, KIAA1704 /// LOC100996395 / Fold change vs veh, KIAA1704 /// LOC100996395 / RFU, ING1 / Fold change vs veh, ING1 / RFU, TRMT61B / Fold change vs veh, TRMT61B / RFU, FUBP3 / Fold change vs veh, FUBP3 / RFU, TP53 / Fold change vs veh, TP53 / RFU, TNKS2 / Fold change vs veh, TNKS2 / RFU, ZFP14 / Fold change vs veh, ZFP14 / RFU, ACTR2 / Fold change vs veh, ACTR2 / RFU, PPP3R1 / Fold change vs veh, PPP3R1 / RFU, PIK3R1 / Fold change vs veh, PIK3R1 / RFU, HNRNPA1 / Fold change vs veh, HNRNPA1 / RFU, RNF170 / Fold change vs veh, RNF170 / RFU, ZNF28 / Fold change vs veh, ZNF28 / RFU, RNGTT / Fold change vs veh, RNGTT / RFU, OGT / Fold change vs veh, OGT / RFU, BRD1 / Fold change vs veh, BRD1 / RFU, MARS / Fold change vs veh, MARS / RFU, ZNF655 / Fold change vs veh, ZNF655 / RFU, FAHD1 / Fold change vs veh, FAHD1 / RFU, BDP1 / Fold change vs veh, BDP1 / RFU, LRRCC1 / Fold change vs veh, LRRCC1 / RFU, ARID1A / Fold change vs veh, ARID1A / RFU, ZNF146 / Fold change vs veh, ZNF146 / RFU, ZNF330 / Fold change vs veh, ZNF330 / RFU, GPN3 / Fold change vs veh, GPN3 / RFU, C9orf123 / Fold change vs veh, C9orf123 / RFU, N4BP2L2 / Fold change vs veh, N4BP2L2 / RFU, ARFIP1 / Fold change vs veh, ARFIP1 / RFU, FAM179B / Fold change vs veh, FAM179B / RFU, BCL10 / Fold change vs veh, BCL10 / RFU, UHRF1BP1L / Fold change vs veh, UHRF1BP1L / RFU, BET1 / Fold change vs veh, BET1 / RFU, CNOT2 / Fold change vs veh, CNOT2 / RFU, ZNF268 / Fold change vs veh, ZNF268 / Fold change vs veh, ZNF507 / RFU, DGCR2 / Fold change vs veh, DGCR2 / RFU, WDSUB1 / Fold change vs veh, WDSUB1 / Fold change vs veh, HSP90B1 /// MIR3652 / RFU, ADSS / Fold change vs veh, ADSS / RFU, GK / Fold change vs veh, GK / RFU, ZNF148 / Fold change vs veh, ZNF148 / RFU, TAF9 / Fold change vs veh, TAF9 / RFU, SLC1A5 / Fold change vs veh, SLC1A5 / RFU, SLMO2 / Fold change vs veh, SLMO2 / RFU, ABCC4 / Fold change vs veh, ABCC4 / RFU, LOC101060439 /// RAP1B / Fold change vs veh, LOC101060439 /// RAP1B / RFU, RFX7 / Fold change vs veh, RFX7 / RFU, GTPBP10 / Fold change vs veh, GTPBP10 / RFU, CNEP1R1 / Fold change vs veh, CNEP1R1 / RFU, BIVM-ERCC5 /// ERCC5 / Fold change vs veh, BIVM-ERCC5 /// ERCC5 / RFU, ILF3 / Fold change vs veh, ILF3 / RFU 11762660_at / Fold change /veh 11762660_at / RFU VCAN (11757783_s_at) / Fold change /veh VCAN (11757783_s_at) / RFU DDX43 (11728927_at) / Fold change /veh DDX43 (11728927_at) / RFU KRT8 (11758188_x_at) / Fold change /veh KRT8 (11758188_x_at) / RFU NKD1 (11759106_at) / Fold change /veh NKD1 (11759106_at) / RFU SRD5A1 (11742802_a_at) / Fold change /veh SRD5A1 (11742802_a_at) / RFU TPSAB1 /// TPSB2 (11721975_s_at) / Fold change /veh TPSAB1 /// TPSB2 (11721975_s_at) / RFU GSTM3 (11746129_a_at) / Fold change /veh GSTM3 (11746129_a_at) / RFU IL23R (11737362_x_at) / Fold change /veh IL23R (11737362_x_at) / RFU TMEM51 (11727254_a_at) / Fold change /veh TMEM51 (11727254_a_at) / RFU PIWIL2 (11732686_x_at) / Fold change /veh PIWIL2 (11732686_x_at) / RFU ORM1 (11744905_x_at) / Fold change /veh ORM1 (11744905_x_at) / RFU CCDC152 (11743942_at) / Fold change /veh CCDC152 (11743942_at) / RFU ECM1 (11717891_a_at) / Fold change /veh ECM1 (11717891_a_at) / RFU IL23R (11748794_a_at) / Fold change /veh IL23R (11748794_a_at) / RFU TNFAIP8L3 (11732012_x_at) / Fold change /veh TNFAIP8L3 (11732012_x_at) / RFU MBOAT4 (11741988_at) / Fold change /veh MBOAT4 (11741988_at) / RFU 11764193_at / Fold change /veh 11764193_at / RFU TMEM53 (11763286_at) / Fold change /veh TMEM53 (11763286_at) / RFU MAGEB2 (11727129_at) / Fold change /veh MAGEB2 (11727129_at) / RFU TMEM200A (11744735_a_at) / Fold change /veh TMEM200A (11744735_a_at) / RFU CCDC152 (11751479_a_at) / Fold change /veh CCDC152 (11751479_a_at) / RFU FAM211A (11726209_a_at) / Fold change /veh FAM211A (11726209_a_at) / RFU RGS16 (11746705_a_at) / Fold change /veh RGS16 (11746705_a_at) / RFU VCAN (11755009_s_at) / Fold change /veh VCAN (11755009_s_at) / RFU RHOB (11743442_s_at) / Fold change /veh RHOB (11743442_s_at) / RFU RGS16 (11720943_a_at) / Fold change /veh RGS16 (11720943_a_at) / RFU RGS16 (11720944_at) / Fold change /veh RGS16 (11720944_at) / RFU, VPS4B / Fold change vs veh, VPS4B / RFU, CREB1 / Fold change vs veh, CREB1 / RFU, DNAJC13 / Fold change vs veh, DNAJC13 / RFU, GNAQ / Fold change vs veh, GNAQ / RFU, CDK5R1 / Fold change vs veh, CDK5R1 / RFU, ZRANB3 / Fold change vs veh, ZRANB3 / RFU, CUL4A / Fold change vs veh, CUL4A / RFU, CCNY / Fold change vs veh, CCNY / RFU, UFL1 / Fold change vs veh, UFL1 / RFU, COG3 / Fold change vs veh, COG3 / RFU, DIAPH2 / Fold change vs veh, DIAPH2 / RFU, SKA2 / Fold change vs veh, SKA2 / RFU, AFF3 / Fold change vs veh, AFF3 / RFU, LMF1 / Fold change vs veh, LMF1 / RFU, IPO11 / Fold change vs veh, IPO11 / RFU, DFFB / Fold change vs veh, DFFB / RFU, FOXP1 / Fold change vs veh, FOXP1 / RFU, CARD8 / Fold change vs veh, CARD8 / RFU, STRN3 / Fold change vs veh, STRN3 / RFU, ADK / Fold change vs veh, ADK / RFU, RASSF2 / Fold change vs veh, RASSF2 / RFU, WIPF1 / Fold change vs veh, WIPF1 / RFU, LARP1B / Fold change vs veh, LARP1B / RFU, RASA1 / Fold change vs veh, RASA1 / RFU, RB1 / Fold change vs veh, RB1 / RFU, PPFIA1 / Fold change vs veh, PPFIA1 / RFU, MAT2A / Fold change vs veh, MAT2A / RFU, CCT5 / Fold change vs veh, CCT5 / RFU, WDR92 / Fold change vs veh, WDR92 / RFU, CUX1 / Fold change vs veh, CUX1 / RFU, TTC7A / Fold change vs veh, TTC7A / RFU, TMEM135 / Fold change vs veh, TMEM135 / RFU, DEPTOR / Fold change vs veh, DEPTOR / RFU, CPM / Fold change vs veh, CPM / RFU, DNAJB6 / Fold change vs veh, DNAJB6 / RFU, CACNA2D3 / Fold change vs veh, CACNA2D3 / RFU, DTX4 / Fold change vs veh, DTX4 / RFU, TFCP2 / Fold change vs veh, TFCP2 / RFU, GMCL1 /// GMCL1P1 / Fold change vs veh, GMCL1 /// GMCL1P1 / RFU, AEBP2 / Fold change vs veh, AEBP2 / RFU, SNHG1 /// SNORD22 /// SNORD25 /// SNORD26 /// SNORD27 /// SNORD28 /// SNORD29 /// SNORD31 / Fold change vs veh, SNHG1 /// SNORD22 /// SNORD25 /// SNORD26 /// SNORD27 /// SNORD28 /// SNORD29 /// SNORD31 / Fold change (Aza/veh), C12orf56 (ProbeSet 11735607_a_at) / Fold change (ACY-1035/veh), C12orf56 (ProbeSet 11735607_a_at) / Fold change (Aza/veh), FGFR1OP (ProbeSet 11751329_s_at) / Fold change (ACY-1035/veh), FGFR1OP (ProbeSet 11751329_s_at) / Fold change (Aza/veh), VPS36 (ProbeSet 11739960_a_at) / Fold change (ACY-1035/veh), VPS36 (ProbeSet 11739960_a_at) / RFU SYPL1 (11715823_x_at) / Fold change /veh SYPL1 (11715823_x_at) / RFU IGFBP7 (11715501_s_at) / Fold change /veh IGFBP7 (11715501_s_at) / RFU REEP3 (11722064_at) / Fold change /veh REEP3 (11722064_at) / RFU IGLL1 (11728026_x_at) / Fold change /veh IGLL1 (11728026_x_at): dose or concentration left out as unconfirmed
Details: ProbeSet 11731583_a_at; LIST D

For Nc1ccc(-c2cccs2)cc1NC(=O)c1ccc2c(c1)cc(C1CC1)n2CCN1CCOCC1 [ACY-1035], the “RFU, LARP1B” value was 84.89 RFU.
